Like-named read-outs stand apart in the source and are kept apart here.
How the values were obtained:
[1] = system: acetylcholine-induced bronchospasm; assay: Acetylcholine-induced bronchospasm in anaesthetised, spontaneously breathing guinea pigs, intravenous administration; type: in vivo, guinea pig (Pirbright White); details: for Mean bronchospasmolytic activity, percentage increase of Vmaxe vs control spasm / Mean bronchospasmolytic activity, percentage increase of tidal volume (TV) vs control spasm: 0-60 min; for Mean bronchospasmolytic activity, percentage increase of Vmaxe vs control spasm / Mean bronchospasmolytic activity, percentage increase of tidal volume (TV) vs control spasm / Bronchospasmolytic activity, percentage increase of Vmaxe vs control spasm / Bronchospasmolytic activity, percentage increase of tidal volume (TV) vs control spasm: x±SEM, N=10; for ED50: Cavia porcellus, iv, 1 h, mean activity 0-60 min; for Bronchospasmolytic activity, percentage increase of Vmaxe vs control spasm / Bronchospasmolytic activity, percentage increase of tidal volume (TV) vs control spasm: at 60 min
From the text: Effect of Intravenously Administered Telenzepine on Acetylchline-Induced Bronchospasms in Anaesthetised, Spontaneously Breathing Guinea Pigs
Method for simultaneously recording pharmacodynamic or toxic effects on interior sensitive receptors and the respiration of guinea pigs (U. Kilian, E. Muller, E. Ch. Dittmann and J. Hamacher, Arzneim.-Forsch. 28, 1699-1708, 1978).
Pirbright White, Interfauna (Tuttlingen), 350-450 g, male.
Ethylurethane 1.2 g/kg i.p. as 12.5% aqueous solution.
Pneumotachogram: Maximum flow velocities of the respiratory air during expiration (Vmaxe, "peak flow"), tidal volume (TV).
Acetylcholine as spasmogen, 0.2-0.3 μmol/kg i.v., dissolved in 0.9% NaCl.
-10 min control spasm, 0 min administration of substance, +2, +10, +20, +30, +60 min test spasms.
Determination of the effect of telenzepine on the parameters (mean and standard error of mean, n=10) and calculation of the bronchospasmolytic activity from this as percentage inhibition of the acetylcholine-induced decrease of Vmaxe and TV by means of time/effect curves. Computation of a dose/response curve of the mean bronchospasmolytic activity during the observation time (0-60 min) from the areas under the time/effect curves and reading of 1 h ED50 values. Determination of a dose/response curve of the bronchospasmolytic activity at time 60 min and reading ED50 values.

[2] = system: acetylcholine-induced asthma attacks; assay: Acetylcholine-induced asthma attacks in the conscious guinea pig, oral administration; type: in vivo, guinea pig (Pirbright White); details: 30 min after administration; for Number of animals, latency period tripled (= protected): 10 animals used
From the text: Effect of orally administered (±)-telenzepine on acetylcholine-induced asthma attacks in the conscious guinea pig
As described by R. Beume, U. Kilian, N. Kolassa, K. Mussler, Atemw.-Lungenkrkh., 11, 342-345, 1985 ("The testing of bronchospasmolytic substances in conscious guinea pigs").
Pirbright White, Interfauna (Tuttlingen), 250-450 g, male, 10 animals per dose and experiment.
Thoracographic measurement of the respiratory activity, measurement of the latency period from the beginning of acetylcholine nebulisation to the beginning of the asthma attack; determination of the number of animals for which, 30 minutes after administration, the latency period of the experimental attack has been at least tripled in relation to the control attack; estimation of the approximate ED50 from this.
0.1, 0.3, 1, 3, 10 and 30 μmol/kg (±)-telenzepine p.o. (in 4% Methocel, administered in 0.9% NaCl); acetylcholine 0.09% in 0.9% NaCl by inhalatin (ultrasonic nebulisation).
The number of animals for which there is at least a tripling of the latency period of the acetylcholine-induced experimental attack in comparison with the control attack as a function of the perorally administered (±)-telenzepine dose is expressed as follows: […]

[3] = system: modified Shay rat (lesion formation and acid secretion); assay: Antiulcerogenic and secretion-inhibiting action on the modified Shay rat; type: in vivo; details: Rattus norvegicus, iv, 4 h, modified Shay rat, i.v., interpolated dose, 4 h, N=24
From the text: The excellent gastric protective action and the gastric secretion-inhibiting action of the compound (+)-4,9-dihydro-3-methyl-4-[(4-methyl-1-piperazinyl)-acetyl]-10H-thieno[3,4-b][1,5]benzodiazepin-10-one (=compound 1 in Table 8 below) in comparison with the corresponding (-)-enantiomer (=compound 3) and with the racemate (=compound 2) can be detected in studies on the modified Shay rat. The effect of the stated compounds after intravenous (i.v.) administration on the formation of lesions and the acid secretion in the modified Shay rat is shown in Table 8 below.
Ulcers are provoked in rats (female, 180-200 g, 4 animals per cage on high grids) which have fasted for 24 hours, by pylorus ligature (under diethyl ether anaesthesia) and oral administration of 100 mg/10 ml/kg of acetylsalicylic acid. The substances to be tested are administered intravenously (1 ml/kg) directly after the pylorus ligature. The wound is closed by means of Michel clamps. 4 hours afterwards, the animals are sacrificed under anaesthesia with ether by Atlas dislocation, and resection of the stomach.
The stomach is opened along the greater curvature and clamped to a cork sheet, the amount of secreted gastric juice (volume) is determined first and its HCl content (titration with sodium hydroxide solution) being determined subsequently. The number and size (=diameter) of ulcers present are determined using a stereomicroscope, under 10×magnification. The product of severity (according to the following point scale) and number of ulcers serves as an individual lesion index.
The reduction in the means lesion index of each treated group compared with the control group (=100%) serves as a measure of the antiulcerogenic effect. The ED50 is the dose which reduces the mean lesion index or the HCl secretion by 50% compared with the control.

In the case of `Cc1scc2c1N(C(=O)CN1CCN(C)CC1)c1ccccc1NC2=O` (racemic) [(±)-telenzepine, 4,9-dihydro-3-methyl-4-[(4-methyl-1-piperazinyl)-acetyl]-10H-thieno[3,4-b][1,5]benzodiazepin-10-one], the “Mean bronchospasmolytic activity, percentage increase of Vmaxe vs control spasm” value ([1]; 0.03 μmol/kg i.v.) is reported as 7 ± 3%, the “Mean bronchospasmolytic activity, percentage increase of tidal volume (TV) vs control spasm” value ([1]; 0.03 μmol/kg i.v.) is reported as 7 ± 3% and the “Mean bronchospasmolytic activity, percentage increase of Vmaxe vs control spasm” value ([1]; 0.05 μmol/kg i.v.) is reported as 22 ± 3%. For the same compound, the “Mean bronchospasmolytic activity, percentage increase of tidal volume (TV) vs control spasm” value ([1]; 0.05 μmol/kg i.v.) was 26 ± 4%, the “Mean bronchospasmolytic activity, percentage increase of Vmaxe vs control spasm” value ([1]; 0.1 μmol/kg i.v.) was 61 ± 8% and the “Mean bronchospasmolytic activity, percentage increase of tidal volume (TV) vs control spasm” value ([1]; 0.1 μmol/kg i.v.) was 68 ± 9%. The “Mean bronchospasmolytic activity, percentage increase of Vmaxe vs control spasm” value ([1]; 1 μmol/kg i.v.) was 81 ± 4%, the “Mean bronchospasmolytic activity, percentage increase of tidal volume (TV) vs control spasm” value ([1]; 1 μmol/kg i.v.) was 84 ± 4% and the “Mean bronchospasmolytic activity, percentage increase of Vmaxe vs control spasm” value ([1]; 5 μmol/kg i.v.) was 75 ± 3%. For the same compound, the “Mean bronchospasmolytic activity, percentage increase of tidal volume (TV) vs control spasm” value ([1]; 5 μmol/kg i.v.) was 86 ± 2%, the ED50 ([1]; read-out: ED50 of mean bronchospasmolytic activity, TV) was 0.07 µmol/kg and the ED50 ([1]; read-out: ED50 of mean bronchospasmolytic activity, Vmaxe) was 0.08 µmol/kg. For the same compound, the “Bronchospasmolytic activity, percentage increase of Vmaxe vs control spasm” value ([1]; 0.03 μmol/kg i.v.) was 11 ± 4%, the “Bronchospasmolytic activity, percentage increase of tidal volume (TV) vs control spasm” value ([1]; 0.03 μmol/kg i.v.) was 12 ± 6% and the “Bronchospasmolytic activity, percentage increase of Vmaxe vs control spasm” value ([1]; 0.05 μmol/kg i.v.) was 25 ± 3%. For the same compound, the “Bronchospasmolytic activity, percentage increase of tidal volume (TV) vs control spasm” value ([1]; 0.05 μmol/kg i.v.) was 32 ± 5%, the “Bronchospasmolytic activity, percentage increase of Vmaxe vs control spasm” value ([1]; 0.1 μmol/kg i.v.) was 70 ± 9% and the “Bronchospasmolytic activity, percentage increase of tidal volume (TV) vs control spasm” value ([1]; 0.1 μmol/kg i.v.) was 78 ± 11%. For the same compound, the “Bronchospasmolytic activity, percentage increase of Vmaxe vs control spasm” value ([1]; 1 μmol/kg i.v.) was 82 ± 5%, the “Bronchospasmolytic activity, percentage increase of tidal volume (TV) vs control spasm” value ([1]; 1 μmol/kg i.v.) was 85 ± 5% and the “Bronchospasmolytic activity, percentage increase of Vmaxe vs control spasm” value ([1]; 5 μmol/kg i.v.) was 80 ± 4%. The “Bronchospasmolytic activity, percentage increase of tidal volume (TV) vs control spasm” value ([1]; 5 μmol/kg i.v.) was 91 ± 3%, the “dose range of dose- and time-dependent inhibition of acetylcholine-induced bronchospasm” value ([1]; i.v.) was 0.03-1 μmol/kg i.v and the “persistence of maximum effect” value ([1]; i.v., observation period) was at least 1 h. The “Number of animals, latency period tripled (= protected)” value (“Number of animals” below) ([2]; 0.1 μmol/kg p.o.) was 3 number of animals, the “Number of animals” value ([2]; 0.3 μmol/kg p.o.) was 5 number of animals and the “Number of animals” value ([2]; 1 μmol/kg p.o.) was 6 number of animals. For the same compound, the “Number of animals” value ([2]; 3 μmol/kg p.o.) was 7 number of animals, the “Number of animals” value ([2]; 10 μmol/kg p.o.) was 9 number of animals and the “Number of animals” value ([2]; 30 μmol/kg p.o.) was 10 number of animals. The ED50 ([2]; Cavia porcellus, po, 0.5 h, 95% Int. in brackets, read-out: approximate ED50 (at least tripling of latency period)) was about 0.7 µmol/kg, the ED50 ([3]; read-out: Gastric protective action, reduction of lesion index, about ED50) was about 0.042 mg/kg and the ED50 ([3]; read-out: Inhibition of acid secretion, reduction of HCl secretion, about ED50) was about 0.18 mg/kg.
